This is an account of results in US9949948B2, “Artemisinin and its derivatives for use in the treatment of trauma haemorrhage and associated conditions” (Queen Mary University of London, priority 2011, dated 2018).

This assay concerns rats subjected to regional myocardial ischaemia and reperfusion. As to the kind of experiment: Regional myocardial ischaemia and reperfusion, artesunate and dihydroartemisinin. It is filed as in vivo, Wistar rats. As to the method: Rats were anaesthetised with thiopentone sodium (Intraval® 120 mg/kg i.p.). Anaesthesia was maintained by supplementary injections of thiopentone sodium as required. The trachea was cannulated and the animals were ventilated with a Harvard ventilator (inspiratory oxygen concentration: 30%; 70 strokes/min, tidal volume: 8-10 ml/kg). Body temperature was maintained at 37±1° C. with the aid of a rectal probe thermometer attached to a homeothermic blanket unit (Harvard Apparatus Ltd., Edenbridge, Kent. U.K.). […] The right jugular vein was then cannulated for the administration of drugs and saline. A para-sternal thoracotomy was then performed, using an Electrosurgery device to cauterize the intercostals arteries before cutting through three ribs. The chest was retracted and pericardium dissected from the heart. The left anterior descending (LAD) coronary artery was isolated and a snare occluder was placed around the LAD. The retractor was then removed and the animal was allowed to stabilise for 15 min.
The occluder was tightened at time 0. After 25 min of LAD-occlusion, the occluder was released to allow reperfusion of the previously ischemic myocardium (2 h). Haemodynamic parameters were continuously monitored. Baseline readings were taken prior to treatment, and, myocardial ischaemia reperfusion (IR) injury. The pressure rate index (PRI), a relative indicator of myocardial oxygen consumption was calculated as a product of the MAP (mmHg) and HR (beats/minute-bpm) and expressed in mm Hg bpm×10^−3.
At the end of the 2 h reperfusion period, the LAD was re-occluded and 1 ml of Evans Blue dye (2% w/v) was injected into the animal, via the jugular vein. The Evans Blue dye stains the tissue it can circulate through, therefore the non-perfused vascular (occluded) tissue remains un-coloured. Each animal was killed with an over-dose of anaesthetic, the heart excised, and excess dye washed off. […] The ischaemic and non-ischaemic tissue was weighed, and the AAR expressed as a percentage of the left ventricle. The tissue from the AAR was cut into small pieces and incubated with p-nitroblue tetrazolium (NBT, 0.5 mg/ml) for 30 min at 37° C. NBT is a reducing agent that reacts with dehydrogenases present in viable (non-infarcted) tissue to produce a dark blue formazan. Infarcted tissue (non-viable) will not have dehydrogenase activity and will therefore fail to stain. The stained tissue was separated from the infarcted tissue, weighed, and the infarct size expressed as a percentage of the AAR.
Sham-operated rats were subjected to surgical procedure without myocardial ischaemia and reperfusion.

Where [1] appears, read: bolus 0.1 mg/kg upon reperfusion, P>0.05 vs Control.

For the molecule `C[C@@H]1CC[C@H]2[C@@H](C)C(O)O[C@H]3O[C@@]4(C)CC[C@@H]1[C@]32OO4` (stereo partly drawn) [dihydroartemisinin, (3R,5aS,6R,8aS,9R,12S,12aR)-decahydro-3,6,9-trimethyl-3,12-epoxy-12H-pyrano[4,3-j]-1,2-benzodioxepin-10-ol], the “infarct size (percentage of the AAR)” value (0.1 mg/kg i.v. bolus upon reperfusion, from 59.8±3.2, P<0.05) came out at 46.5±1.3%. For the same molecule, where the note is “0.1 mg/kg i.v. upon reperfusion, vs control”, the Infarct size reduction is 40%. Moreover, the area at risk entry (0.1 mg/kg, compared to vehicle treated rats) is on record as “no significant effect”. Under setting [1], the “fall in mean arterial blood pressure caused by myocardial ischaemia and reperfusion” value is listed as “did not attenuate”; the heart rate entry is recorded as “did not have a significant effect”.
